Reference: US12692254B2, “Benzimidazole inhibitors of PAD enzymes” (BRISTOL-MYERS SQUIBB COMPANY, priority 2018, dated 2026)

Target: human PAD4 (hPAD4) (Homo sapiens, UniProt Q9UM07)
Test: RFMS human PAD4 functional assay (rapid-fire mass spectrum)
Type: biochemical
Details: 5 nM hPAD4 enzyme, 250 μM BAEE, 50 μM Calcium; 30 min preincubation, 90 min reaction at 37° C.
Protocol: Compounds of the present invention were assayed as inhibitors of PAD4 using the assay protocol described below.
RFMS tinman PAD4 Functional Assay:
Compounds were solubilized in 100% DMSO to achieve a 10 mM compound concentration. Compound stock solutions were stored at RT. A series of dilutions were prepared in DMSO and mixed 8 times with 20 μl, mixing volume. Final top concentration of compound in the assay is 50 μM. […] 1-90 min enzyme/substrate reaction, 30 min reaction with phenyl glyoxal at 37° C. • Stop solution: 40 μl 5% TCA in ACN
0.13 μL of compound solution was added to 13 μL of 10 nM PAD4 in assay buffer. After 30 min 13 μl of 500 μM of BAEE was added in 25 mM hepes, pH 7.5, 5 mM NaCl, 1 mM DTT, 0.2 mg/ml BS A, 0.01% CHAPS, 50 μM Calcium, 5 μM TPEN was added and the reaction incubated for 90 min at 37° C. The enzymatic reaction was quenched by addition of 15 μl of 6.1N TCA, 100% Final Concentration is 20%, 35 μl of 8.5 mM phenyl glyoxal (final concentration 4 mM) is then added and the reaction is incubated for 30 min at 37° C.
After 30 minutes the plates are spun down to remove all precipitate. The enzyme reaction was quenched with an equal volume of methanol containing internal standard (modified citrulline). Samples were loaded onto the Rapid Fire RF300 system (Agilent) wherein they were first sipped for 1000 ms and then directly loaded to a C18 separations cartridge using a mixture of acetonitrile containing 0.01% formic acid for 3000 ms desalting. The flow rate of the mobile phase was 1.5 ml/min.
The dwell time for each transition was set at 200 ms, and the ESI voltage was used at 5500 with a source temperature of 400° C. Extracted ion peaks for each transition were integrated using the Rapid Fire Integrator software. Peak area of analyte was normalized with internal standard).

Chain of human PAD4 (hPAD4) (Q9UM07 whole entry): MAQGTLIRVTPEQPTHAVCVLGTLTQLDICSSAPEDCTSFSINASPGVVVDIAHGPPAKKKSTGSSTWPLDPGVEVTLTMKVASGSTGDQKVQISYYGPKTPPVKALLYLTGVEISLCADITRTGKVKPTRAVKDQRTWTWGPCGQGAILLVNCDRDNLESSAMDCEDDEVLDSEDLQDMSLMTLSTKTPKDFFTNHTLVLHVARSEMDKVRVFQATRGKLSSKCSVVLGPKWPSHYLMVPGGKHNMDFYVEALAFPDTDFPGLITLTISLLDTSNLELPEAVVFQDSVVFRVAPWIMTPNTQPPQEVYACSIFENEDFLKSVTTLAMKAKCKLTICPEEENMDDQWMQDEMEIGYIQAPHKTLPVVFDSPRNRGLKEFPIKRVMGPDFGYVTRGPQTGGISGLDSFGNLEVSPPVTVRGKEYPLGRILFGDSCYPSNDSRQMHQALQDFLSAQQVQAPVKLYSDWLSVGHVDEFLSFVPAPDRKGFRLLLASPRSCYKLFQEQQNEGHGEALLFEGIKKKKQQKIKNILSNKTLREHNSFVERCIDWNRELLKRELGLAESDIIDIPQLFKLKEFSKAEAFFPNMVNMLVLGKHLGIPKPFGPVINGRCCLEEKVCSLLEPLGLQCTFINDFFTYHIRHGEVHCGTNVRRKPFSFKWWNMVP

IC50 | Structure (SMILES)
26 nM | COc1cc(C(=O)N2CC3CCC2[C@@H]3N)cc2nc(-c3cc4cccnc4n3CC3CC3)n(Cc3cnn(-c4ncc(Cl)cc4F)c3)c12 (stereo partly drawn) [Example 342, ((7R)-7-amino-2-azabicyclo[2.2.1]heptan-2-yl)(1-((1-(5-chloro-3-fluoropyridin-2-yl)-1H-pyrazol-4-yl)methyl)-2-(1-(cyclopropylmethyl)-1H-pyrrolo[2,3-b]pyridin-2-yl)-7-methoxy-1H-benzo[d]imidazol-5-yl)methanone]
22 nM | COc1cc(C(=O)N2C[C@H]3CC[C@@H]2[C@@H]3N)cc2nc(-c3cc4ccccc4n3CC3CC3)n(CC3CN(C(=O)c4cnn(C)c4)C3)c12 [Example 155, (1R,4R,7R)-2-{2-[1-(cyclopropylmethyl)-1H-indol-2-yl]-7-methoxy-1-{[1-(1-methyl-1H-pyrazole-4-carbonyl)azetidin-3-yl]methyl}-1H-1,3-benzodiazole-5-carbonyl}-2-azabicyclo[2.2.1]heptan-7-amine]
219 nM | COc1cc(C(=O)N2C[C@H]3CC[C@@H]2[C@@H]3N)cc2nc(-c3cc4cccnc4n3CC3CC3)n(CC3CN(S(=O)(=O)C4CC4)C3)c12 [Example 332, (1R,4R,7R)-2-(1-{[1-(cyclopropanesulfonyl)azetidin-3-yl]methyl}-2-[1-(cyclopropylmethyl)-1H-pyrrolo[2,3-b]pyridin-2-yl]-7-methoxy-1H-1,3-benzodiazole-5-carbonyl)-2-azabicyclo[2.2.1]heptan-7-amine]
282 nM | COc1cc(C(=O)N2CC3CCC2[C@@H]3N)cc2nc(-c3cc4cccnc4n3CC3CC3)n([C@H]3C[C@@H](N)C3)c12 (stereo partly drawn) [Example 295, (1R,4R,7R)-2-{2-[1-(cyclopropylmethyl)-1H-pyrrolo[2,3-b]pyridin-2-yl]-7-methoxy-1-[(1s,3s)-3-aminocyclobutyl]-1H-1,3-benzodiazole-5-carbonyl}-2-azabicyclo[2.2.1]heptan-7-amine]
83 nM | N#Cc1ccc(C(=O)N2CC(Cn3c(-c4cc5cccnc5n4CC4CC4)nc4cc(C(=O)N5C[C@H]6CC[C@@H]5[C@@H]6N)cc(Cl)c43)C2)cc1 [Example 96, 4-[3-({5-[(1R,4R,7R)-7-amino-2-azabicyclo[2.2.1]heptane-2-carbonyl]-7-chloro-2-[1-(cyclopropylmethyl)-1H-pyrrolo[2,3-b]pyridin-2-yl]-1H-1,3-benzodiazol-1-yl}methyl)azetidine-1-carbonyl]benzonitrile]
25 nM | COc1cc(C(=O)N2C[C@H]3CC[C@@H]2[C@@H]3N)cc2nc(-c3cc4ccccc4n3CC3CC3)n(Cc3cccnc3)c12 [Example 246, (1R,4R,7R)-2-{2-[1-(cyclopropylmethyl)-1H-indol-2-yl]-7-methoxy-1-[(pyridin-3-yl)methyl]-1H-1,3-benzodiazole-5-carbonyl}-2-azabicyclo[2.2.1]heptan-7-amine]
14 nM | COc1cc(C(=O)N2C[C@H]3CC[C@@H]2[C@@H]3N)cc2nc(-c3cc4ccccc4n3CC3CC3)n(CC3CN(C(=O)c4ccc(O)cc4)C3)c12 [Example 140, 4-[3-({5-[(1R,4R,7R)-7-amino-2-azabicyclo[2.2.1]heptane-2-carbonyl]-2-[1-(cyclopropylmethyl)-1H-indol-2-yl]-7-methoxy-1H-1,3-benzodiazol-1-yl}methyl)azetidine-1-carbonyl]phenol]
163 nM | COc1cc(C(=O)N2C[C@H]3CC[C@@H]2[C@@H]3N)cc2nc(-c3cc4cccnc4n3CC3CC3)n(CC3CN(S(=O)(=O)C(F)(F)F)C3)c12 [Example 325, (1R,4R,7R)-2-{2-[1-(cyclopropylmethyl)-1H-pyrrolo[2,3-b]pyridin-2-yl]-7-methoxy-1-[(1-trifluoromethanesulfonylazetidin-3-yl)methyl]-1H-1,3-benzodiazole-5-carbonyl}-2-azabicyclo[2.2.1]heptan-7-amine]
27 nM | CC#CC(=O)N1CC(Cn2c(-c3cc4cccnc4n3CC3CC3)nc3cc(C(=O)N4C[C@H]5CC[C@@H]4[C@@H]5N)cc(OC)c32)C1 [Example 104, 1-[3-({5-[(1R,4R,7R)-7-amino-2-azabicyclo[2.2.1]heptane-2-carbonyl]-2-[1-(cyclopropylmethyl)-1H-pyrrolo[2,3-b]pyridin-2-yl]-7-methoxy-1H-1,3-benzodiazol-1-yl}methyl)azetidin-1-yl]but-2-yn-1-one]
149 nM | COc1cc(C(=O)N2CC3CCC2[C@@H]3N)cc2nc(-c3cc4ccccc4n3CC3CC3)n(Cc3cn(C)nn3)c12 (stereo partly drawn) [Example 503, (7R)-2-{2-[1-(cyclopropylmethyl)-1H-indol-2-yl]-7-methoxy-1-[(1-methyl-1H-1,2,3-triazol-4-yl)methyl]-1H-1,3-benzodiazole-5-carbonyl}-2-azabicyclo[2.2.1]heptan-7-amine]
54 nM | COc1cc(C(=O)N2C[C@H]3CC[C@@H]2[C@@H]3N)cc2nc(-c3cc4cccnc4n3CC3CC3)n(CC3CN(c4ccnc(S(C)(=O)=O)n4)C3)c12 [Example 18, (1R,4R,7R)-2-{2-[1-(cyclopropylmethyl)-1H-pyrrolo[2,3-b]pyridin-2-yl]-1-{[1-(2-methanesulfonylpyrimidin-4-yl)azetidin-3-yl]methyl}-7-methoxy-1H-1,3-benzodiazole-5-carbonyl}-2-azabicyclo[2.2.1]heptan-7-amine]
27 nM | COc1cccc(-n2cc(Cn3c(-c4cc5cccnc5n4CC4CC4)nc4cc(C(=O)N5CC6CCC5[C@@H]6N)cc(OC)c43)cn2)n1 (stereo partly drawn) [Example 365, (7R)-2-{2-[1-(cyclopropylmethyl)-1H-pyrrolo[2,3-b]pyridin-2-yl]-7-methoxy-1-{[1-(6-methoxypyridin-2-yl)-1H-pyrazol-4-yl]methyl}-1H-1,3-benzodiazole-5-carbonyl}-2-azabicyclo[2.2.1]heptan-7-amine]
59 nM | C/C=C/C(=O)N1CC(Cn2c(-c3cc4cccnc4n3CC3CC3)nc3cc(C(=O)N4C[C@H]5CC[C@@H]4[C@@H]5N)cc(OC)c32)C1 [Example 116, (2E)-1-[3-({5-[(1R,4R,7R)-7-amino-2-azabicyclo[2.2.1]heptane-2-carbonyl]-2-[1-(cyclopropylmethyl)-1H-pyrrolo[2,3-b]pyridin-2-yl]-7-methoxy-1H-1,3-benzodiazol-1-yl}methyl)azetidin-1-yl]but-2-en-1-one]
65 nM | Cc1cc(C(=O)N2CC3CCC2[C@@H]3N)cc2nc(-c3cc4cccnc4n3CC3CC3)n(CC3CN(C(=O)c4ccccc4)C3)c12 (stereo partly drawn) [Example 458, (7R)-2-{1-[(1-benozylazetidin-3-yl)methyl]-2-[1-(cyclopropylmethyl)-1H-pyrrolo[2,3-b]pyridin-2-yl]-7-methyl-1H-1,3-benzodiazole-5-carbonyl}-2-azabicyclo[2.2.1]heptan-7-amine]
50 nM | COc1cc(C(=O)N2C[C@H]3CC[C@@H]2[C@@H]3N)cc2nc(-c3cc4cccnc4n3CC3CC3)n(CC3CN(c4cnc(C#N)nc4)C3)c12 [Example 17, 5-[3-({5-[(1R,4R,7R)-7-amino-2-azabicyclo[2.2.1]heptane-2-carbonyl]-2-[1-(cyclopropylmethyl)-1H-pyrrolo[2,3-b]pyridin-2-yl]-7-methoxy-1H-1,3-benzodiazol-1-yl}methyl)azetidin-1-yl]pyrimidine-2-carbonitrile]
